Measurements taken from ChEMBL document CHEMBL6103615, “Thymidylate Kinase-Targeted Antimicrobial Peptides via Phage Display: A Novel Strategy against Gram-Negative Bacteria” (J Med Chem, 2025).
Converted amounts (≈) assume the structure as drawn. The source made the active and inactive calls. The calls are words filed in the database; no cut-off is given here.

What was measured:
Bacteria [1] = assay: Antibacterial activity against bacterial cells at pH 2; type: functional
[2] = Toxicity in ICR mouse assessed as change in serum ALT level at 10 to 40 mg/kg, ip treated for 3 days consecutively; type: organism-based; conditions: in vivo, 72 h, dose 10-40 mg/kg, time 3 day
[3] = Selectivity ratio of MIC for antibacterial activity against Lactobacillus plantarum 8014 to MIC for antibacterial activity against Escherichia coli K90; type: functional
[4] = Toxicity in ICR mouse assessed as impaired mobility at 40 mg/kg, ip measured for 30 to 4 hrs; type: organism-based; conditions: in vivo, time 30-4 hrs
Escherichia coli [5] = assay: Induction of morphological changes in Escherichia coli K88 assessed as membrane permeability at edges at 2 uM incubated for 1 hr by TEM analysis; type: functional, organism-based
[6] = Selectivity ratio of MIC for antibacterial activity against Escherichia coli 1515 to MIC for antibacterial activity against Escherichia coli K100; type: functional
[7] = Selectivity ratio of MIC for antibacterial activity against Pseudomonas aeruginosa PAO1 to MIC for antibacterial activity against Escherichia coli K97; type: functional
[8] = Cytotoxicity against porcine IPEC-J2 cells assessed as cell viability at 128 uM incubated for 4 hrs by MTT assay relative to control; type: toxicity, cell-based, Sus scrofa; conditions: pig, read-out: Activity
[9] = Selectivity ratio of MIC for antibacterial activity against Escherichia coli K99 to MIC for antibacterial activity against Escherichia coli K102; type: functional
Escherichia coli [10] = assay: Antibacterial activity against Escherichia coli K88 infected in ICR mouse model of peritoneal sepsis assessed as reduction in vascular bruising in liver at 20 mg/kg, ip measured after 10 hrs by H and E staining based analysis; type: functional, organism-based
Escherichia coli [11] = assay: Induction of morphological changes in Escherichia coli K88 assessed as cytoplasmic leakage at 2 uM incubated for 1 hr by TEM analysis; type: functional, organism-based
[12] = Effect on secondary structure of compound in 50 percent TFE assessed as formation of alpha-helical conformation at 100 uM by CD analysis; type: physicochemical
Escherichia coli [13] = assay: Antibacterial activity against Escherichia coli K88 infected in ICR mouse model of peritoneal sepsis assessed as reduction in granulocyte infiltration in lungs at 20 mg/kg, ip measured after 10 hrs by H and E staining based analysis; type: functional, organism-based
Escherichia coli [14] = assay: Antibacterial activity against Escherichia coli K88 infected in ICR mouse model of peritoneal sepsis assessed as reduction in blood IL-6 level at 20 mg/kg, ip measured after 10 hrs; type: functional, organism-based
Bacteria [15] = assay: Antibacterial activity against bacterial cells at pH 2 to 12; type: functional
[16] = Selectivity ratio of MIC for antibacterial activity against Staphylococcus aureus 25923 to MIC for antibacterial activity against Escherichia coli K93; type: functional
Escherichia coli [17] = assay: Antibacterial activity against Escherichia coli K88 infected in ICR mouse model of peritoneal sepsis assessed as bacterial load reduction in kidney at 20 mg/kg, ip measured after 10 hrs; type: functional, organism-based
Bacteria [18] = assay: Antibacterial activity against bacterial cells at 100 degreeC at 1 to 64 uM incubated for 60 mins; type: functional, organism-based; conditions: dose 1-64 µM
Escherichia coli [19] = assay: Antibacterial activity against Escherichia coli K99 incubated for 12 to 18 hrs by microbroth dilution method; type: functional; conditions: time 12-18 hrs
Escherichia coli [20] = assay: Antibacterial activity against Escherichia coli K88 infected in ICR mouse model of peritoneal sepsis assessed as reduction in granulocyte infiltration in spleen at 20 mg/kg, ip measured after 10 hrs by H and E staining based analysis; type: functional, organism-based
[21] = system: Staphylococcus epidermidis; assay: Antibacterial activity against Staphylococcus epidermidis 12228 incubated for 12 to 18 hrs by microbroth dilution method; type: functional; conditions: time 12-18 hrs
[22] = Antibacterial activity against Salmonella choleraesuis 21493 incubated for 12 to 18 hrs by microbroth dilution method; type: functional, Salmonella enterica subsp. enterica serovar Choleraesuis; conditions: Salmonella enterica, time 12-18 hrs
Escherichia coli [23] = assay: Antibacterial activity against Escherichia coli K88 infected in ICR mouse model of peritoneal sepsis assessed as reduction in necrosis in renal tubular epithelial cells at 20 mg/kg, ip measured after 10 hrs by H and E staining based analysis; type: functional, organism-based
Bacteria [24] = assay: Antibacterial activity against bacterial cells at 1 to 128 uM in presence of NaCl; type: functional, organism-based; conditions: dose 1-128 µM
[25] = Hydrophobicity of compound; type: physicochemical
Escherichia coli [26] = assay: Induction of morphological changes in Escherichia coli K88 assessed as membrane contraction at 2 uM incubated for 1 hr by SEM analysis; type: functional, organism-based
Escherichia coli [27] = assay: Induction of ROS generation in Escherichia coli K88 assessed as increase in fluorescence intensity incubated for 1 hr by DCFH-DA dye based analysis; type: functional, organism-based
[28] = Toxicity in ICR mouse assessed as body weight change at 10 to 40 mg/kg, ip treated for 3 days consecutively; type: organism-based; conditions: in vivo, 72 h, dose 10-40 mg/kg, time 3 day
[29] = Toxicity in ICR mouse assessed as change in serum TBIL level at 10 to 40 mg/kg, ip treated for 3 days consecutively; type: organism-based; conditions: in vivo, 72 h, dose 10-40 mg/kg, time 3 day
[30] = Toxicity in ICR mouse assessed as change in spleen index at 10 to 40 mg/kg, ip treated for 3 days consecutively; type: organism-based; conditions: in vivo, 72 h, dose 10-40 mg/kg, time 3 day
Bacteria [31] = assay: Antibacterial activity against bacterial cells at 1 to 128 uM in presence of CaCl; type: functional, organism-based; conditions: dose 1-128 µM
Lactococcus lactis = assay: Antibacterial activity against Lactococcus lactis NZ9000 incubated for 12 to 18 hrs by microbroth dilution method; type: functional; conditions: time 12-18 hrs
Escherichia coli [32] = assay: Disruption of membrane integrity in Escherichia coli K88 at 2 uM by PI staining based flow cytometry (reference value: 0.1 %); type: functional
Bacteria [33] = assay: Antibacterial activity against bacterial cells at 1 to 64 uM incubated for 4 hrs in presence of 50 percent serum; type: functional, organism-based; conditions: dose 1-64 µM
[34] = Effect on secondary structure of compound in PBS assessed as formation of alpha-helical conformation at 100 uM by CD analysis; type: physicochemical; conditions: buffer
[35] = Hemolytic activity against human red blood cells at 2 to 128 uM relative to control; type: toxicity, cell-based, Erythrocyte; conditions: dose 2-128 µM, read-out: Activity
[36] = Toxicity in ICR mouse assessed as hunchback posture at 40 mg/kg, ip measured for 30 to 4 hrs; type: organism-based; conditions: in vivo, time 30-4 hrs
[37] = Toxicity in ICR mouse assessed as change in serum BUN level at 10 to 40 mg/kg, ip treated for 3 days consecutively; type: organism-based; conditions: in vivo, 72 h, dose 10-40 mg/kg, time 3 day

## CC[C@@H](C)[C@H](NC(=O)CNC(=O)[C@@H]1CCCN1C(=O)[C@H](CCCCN)NC(=O)[C@H](Cc1c[nH]c2ccccc12)NC(=O)[C@@H](NC(=O)[C@H](CCCCN)NC(=O)[C@H](CCCCN)NC(=O)[C@H](Cc1c[nH]c2ccccc12)NC(=O)[C@H](Cc1ccc(O)cc1)NC(=O)[C@H](CCCCN)NC(=O)[C@@H](NC(=O)[C@H](CC(C)C)NC(=O)[C@H](CC(N)=O)NC(=O)CNC(=O)[C@@H](N)CO)[C@@H](C)O)[C@@H](C)CC)C(=O)N[C@@H](CCCCN)C(=O)N[C@@H](CCCCN)C(=O)N[C@@H](Cc1c[nH]c2ccccc12)C(=O)N[C@H](C(=O)N[C@@H](CCCCN)C(=O)O)[C@H](C)CC
Bacteria [1]
  MIC: 4 µM (≈ 10.4 µg/mL)
[2]
  Activity: Non-toxic
[3]
  Ratio: >2
[4]
  Activity: Toxic
Escherichia coli [5]
  Activity: Active
[6]
  Ratio: >2
[7]
  Ratio: >2
[8]
  viability at 4 h, 128 µM: > 80%
[9]
  Ratio: >2
Escherichia coli [10]
  Activity: Active
Escherichia coli [11]
  Activity: Active
[12]
  Activity: Active
Escherichia coli [13]
  Activity: Active
Escherichia coli [14]
  Activity: Active
Bacteria [15]
  MIC: 2 µM (≈ 5.21 µg/mL)
[16]
  Ratio: >2
Escherichia coli [17]
  Activity: Active; Activity Comparable To Colistin Treatment
Bacteria [18]
  Activity: Active
Escherichia coli [19]
  MIC: 4 µM (≈ 10.4 µg/mL)
Escherichia coli [20]
  Activity: Active
[21]
  MIC: 128 µM (≈ 333 µg/mL)
[22]
  MIC: 8 µM (≈ 20.8 µg/mL)
Escherichia coli [23]
  Activity: Active
Bacteria [24]
  Activity: inactive
[25]
  Activity: 0.391
Escherichia coli [26]
  Activity: Active
Escherichia coli [27]
  Activity: Dose-dependent-effect
[28]
  Activity: Non-toxic
[29]
  Activity: Non-toxic
[30]
  Activity: Non-toxic
Bacteria [31]
  Activity: inactive
Lactococcus lactis
  MIC: 128 µM (≈ 333 µg/mL)
Escherichia coli [32]
  Activity: 96.8%
Bacteria [33]
  Activity: Active
[34]
  Activity: Active
[35]
  hemolysis at up to 128 µM: < 5%
[36]
  Activity: Toxic
[37]
  Activity: Non-toxic
